Counter-ions that a name gives are not always drawn. Like-named read-outs stand apart in the source and are kept apart here. Marks after values point to notes of the source that are not given here.
Test system: E. coli ATCC 25922
Assay: Phototoxicity test c.1) (LED array 430-435 nm, CFU count by Miles and Misra)
Format: cell-based, Escherichia coli
Conditions: for log reduction at 10 µM / log reduction at 50 µM: Escherichia coli, ATCC25922, light or radiation study; for log reduction at 10 µM: read-out: Effectiveness against E. Coli: Reduction in CFU in log10 at concentration of 10 μM; for log reduction at 50 µM: read-out: Effectiveness against E. Coli: Reduction in CFU in log10 at concentration of 50 μM
Protocol: A sample of the bacterial cell Staphylococcus. aureus (ATCC number: 25923) or Escherichia. coli (ATCC number: 25922) was removed from a cryo-freeze culture and cultured under aerobic conditions at 37° C. and 175 rpm overnight in an orbital shaker (MAXQ4000, Thermo Scientific, Dubuque, Iowa, USA). Growth was carried out in 20 mL Todd-Hewitt broth (Carl Roth, Karlsruhe, Germany) supplemented with 0.3% of yeast extract (AppliChem, Darmstadt, Germany).
Subsequently, dilutions (0, 5, 10, […] and 20% v/v of the overnight culture) and their absorptions were measured at 600 nm in triplicate for 100 μL (Infinite 200 M Pro, Tecan, Mannedorf, Switzerland). A calibration graph (Microsoft Excel) was used to calculate the volume which was required to produce 20 mL of a culture with an absorption of 0.05 at 600 nm. The volume calculated for the overnight culture was topped up with Todd-Hewitt broth (composition as above) to 20 mL and incubated for two hours at 37° C. with constant movement (175 rpm, MAXQ4000). The cultures were then in the exponential growth phase; the absorption at 600 nm was between 0.3 and 0.45.
A 2-hour culture was divided into 1800 μL aliquots. After centrifuging at 20° C., 830 rcf, 5 min (5417R centrifuge, Eppendorf, Hamburg, Germany), the pellets were re-suspended in phosphate buffer (Dulbeccos' Modified Phosphate Saline, DPBS, Sigma-Aldrich) with either 10 or 50 μM of the corresponding photosensitizer, wherein the final volume was kept at 1800 μL.
The solutions obtained were immediately incubated on the orbital shaker (see above for parameters) for 5 or 25 minutes.
Three controls were run at the same time for each photosensitizer. The “light only” control contained DPBS without photosensitizer. The “photosensitizer only” (“PS only”) control was incubated like the PDI samples, but not irradiated and kept strictly in darkness. A further control (double negative, “Co−/−”), received neither light nor photosensitizer.
After the incubation, duplicates of the samples (500 μL each) were transferred into a 24-well microtitre plate (Cellstar, Greiner Bio-One, Frickenhausen, Germany). The “PS only” and “Co −/−” samples were placed in their own microtitre plate which was packed in aluminium foil so as to be lightproof.
The irradiation was carried out under constant shaking (MTS4, IKA, Staufen, Germany, 175 rpm) from below on a LED array with maximum homogeneity of the lighting surface. All of the controls were shaken in the same manner. The technical data for the light source are shown in Table 2; the total dose of light applied was 33.8 J/cm^2.
The determination of the colony forming units (CFU) was carried out in accordance with the method published by Miles and Misra (Miles, A A; Misra, S S, Irwin, J O (1938 Nov.). “The estimation of the bactericidal power of the blood” The Journal of hygiene 38 (6): 732-49). In this regard, serial dilutions (1:10) of the corresponding bacterial suspension were produced in DPBS. 5×10 μL of each bacterial dilution was then dripped onto Todd-Hewitt plates (with broth, additional 1.5% agar (Agar-Agar, Kobe I, Roth, Karlsruhe, Germany) and incubated at 37° C. for 24 h. Next, the number of surviving colony forming units was determined. All of the tests were carried out four times.
The photosensitizers were tested against the bacterial strain E. coli ATCC 25922. FIGS. 1-20 show the measured surviving colony forming units (CFU).
The average reference control (arithmetic mean with standard deviation) (no light, no PS) was 3.6×10^8/mL. The logarithmic reduction after illumination is shown with respect to the reference control. The respective upper value, indicated by a *, refers to an incubation period of 5 min and the respectively lower value, indicated by a #, refers to an incubation period of 25 min.

[1] = 5 min, 10 μM, incubation period 5 min (upper value, *), light dose 33.8 J/cm^2, approx. 435 nm, 60 min at 9.4 mW/cm^2, vs reference control
[2] = 5 min, 50 μM, incubation period 5 min (upper value, *), light dose 33.8 J/cm^2, approx. 435 nm, 60 min at 9.4 mW/cm^2, vs reference control
[3] = 25 min, 10 μM, incubation period 25 min (lower value), light dose 33.8 J/cm^2, approx. 435 nm, 60 min at 9.4 mW/cm^2, vs reference control
[4] = 25 min, 50 μM, incubation period 25 min (lower value), light dose 33.8 J/cm^2, approx. 435 nm, 60 min at 9.4 mW/cm^2, vs reference control
[5] = 10 μM, incubation period 5 min (upper value, *), light dose 33.8 J/cm^2, approx. 435 nm, 60 min at 9.4 mW/cm^2, vs reference control
[6] = 10 μM, incubation period 25 min (lower value), light dose 33.8 J/cm^2, approx. 435 nm, 60 min at 9.4 mW/cm^2, vs reference control
[7] = 50 μM, incubation period 5 min (upper value, *), light dose 33.8 J/cm^2, approx. 435 nm, 60 min at 9.4 mW/cm^2, vs reference control
[8] = 50 μM, incubation period 25 min (lower value), light dose 33.8 J/cm^2, approx. 435 nm, 60 min at 9.4 mW/cm^2, vs reference control

Row | Compound | log reduction at 10 µM [1] | log reduction at 50 µM [2] | log reduction at 10 µM [3] | log reduction at 50 µM [4] | further results
1 | COc1cc(OCCN)ccc1/C=C/C(=O)CC(=O)/C=C/c1ccc(OCCN)cc1OC [Curcumin 01b hydrochloride] | > 2 | > 5 | > 3 | > 7 | –
2 | COc1cc(/C=C/C(=O)CC(=O)/C=C/c2cc(I)c(OCCN)c(OC)c2)cc(I)c1OCCN [Curcumin 01c hydrochloride] | > 2 | > 3 | > 2 | > 4 | –
3 | COc1ccc(/C=C/C(=O)CC(=O)/C=C/c2ccc(OCCN)c(OCCN)c2)cc1OCCN [Curcumin 13b hydrochloride] | > 7 | > 7 | > 7 | > 7 | –
4 | NCCOc1ccc(/C=C/C(=O)CC(=O)/C=C/c2ccc(OCCN)c3ccccc23)c2ccccc12 [Curcumin 12a hydrochloride] | > 1 | > 6 | > 4 | > 6 | –
5 | COc1ccc(/C=C/C(=O)CC(=O)/C=C/c2ccc(OCCN)c(OC)c2)cc1OC [Curcumin 11b hydrochloride] | ~1 | ~3 | > 1 | > 3 | –
6 | COc1cc(/C(C)=C(\C)C(=O)CC(=O)/C(C)=C(\C)c2ccc(OCCN)c(OC)c2)ccc1OCCN [Curcumin 14b hydrochloride] | – | – | – | > 1 | –
7 | (1E,6E)-1,7- bis(4-(2- aminoethoxy)-3- methoxy- phenyl)hepta-1,6- diene-3,5-dione hydrochloride- zinc complex [Curcumin 01a zinc complex] | – | – | – | – | Effectiveness against E. Coli: Reduction in CFU in log10 at concentration of 10 μM [5]: >3* log10; Effectiveness against E. Coli: Reduction in CFU in log10 at concentration of 10 μM [6]: >2 log10; Effectiveness against E. Coli: Reduction in CFU in log10 at concentration of 50 μM [7]: >5* log10; Effectiveness against E. Coli: Reduction in CFU in log10 at concentration of 50 μM [8]: >5 log10
8 | Bis[(1E,6E)-1,7- bis(4-(2- aminoethoxy)-3- methoxy- phenyl)hepta-1,6- diene-3,5-dione hydrochloride] boron complex [Roseo-curcumin 01a hydrochloride] | – | – | – | – | Effectiveness against E. Coli: Reduction in CFU in log10 at concentration of 10 μM [5]: >5* log10; Effectiveness against E. Coli: Reduction in CFU in log10 at concentration of 10 μM [6]: >5 log10; Effectiveness against E. Coli: Reduction in CFU in log10 at concentration of 50 μM [7]: >7* log10; Effectiveness against E. Coli: Reduction in CFU in log10 at concentration of 50 μM [8]: >6 log10
9 | NCCOc1ccc(/C=C/C(=O)CC(=O)/C=C/c2ccc(OCCN)cc2)cc1 [Curcumin 0 hydrochloride] | > 4 | > 6 | > 5 | > 6 | –
10 | NCCCOc1ccc(/C=C/C(=O)CC(=O)/C=C/c2ccc(OCCCN)c(OCc3ccccc3)c2)cc1OCc1ccccc1 [Curcumin 04 hydrochloride] | > 1 | > 3 | > 3 | > 4 | –
11 | COc1cc(/C=C/C(=O)CC(=O)/C=C/c2ccc(OCCC[N+](C)(C)C)c(OC)c2)ccc1OCCC[N+](C)(C)C [Curcumin 10a hydrochloride, 3,3′-(4,4′-((1E,6E)-3,5-dioxohepta-1,6-diene-1,7-diyl)bis(2-methoxy-4,1-phenylene))bis(oxy)bis(N,N,N-trimethylpropan-1-aminium) chloride] | – | – | – | – | log reduction at 10 µM (5 min): > 1; log reduction at 50 µM (5 min): > 5; log reduction at 10 µM (25 min): > 1; log reduction at 50 µM (25 min): > 5
12 | NCCOc1cc(/C=C/C(=O)CC(=O)/C=C/c2ccc(OCCOCCOCCO)c(OCCN)c2)ccc1OCCOCCOCCO [Curcumin 08 hydrochloride] | – | ~1 | – | > 1 | –
13 | COc1cc(/C=C/C(=O)C2CCC/C(=C\c3ccc(OCCN)c(OC)c3)C2=O)ccc1OCCN (centres unmarked) [Curcumin 09b hydrochloride] | – | > 1 | – | > 2 | –
14 | NCCOc1cc(/C=C/C(=O)CC(=O)/C=C/c2cc(OCCN)c(OCCN)c(OCCN)c2)cc(OCCN)c1OCCN [Curcumin 05 hydrochloride] | > 4 | > 7 | > 4 | > 6 | –
15 | Cc1cc(/C=C/C(=O)CC(=O)/C=C/c2ccc(OCCN)c(C)c2)ccc1OCCN [Curcumin 01e hydrochloride] | > 5 | > 4 | > 5 | > 7 | –
16 | COc1cc(/C=C/C(=O)CC(=O)/C=C/c2ccc(OCCC[n+]3ccccc3)c(OC)c2)ccc1OCCC[n+]1ccccc1 [Curcumin 10c hydrochloride, 1,1′-(3,3′-(4,4′-((1E,6E)-3,5-dioxohepta-1,6-diene-1,7-diyl)bis(2-methoxy-4,1-phenylene))bis(oxy)bis(propane-3,1-diyl))dipyridinium chloride] | > 4 | > 7 | > 5 | > 7 | –
17 | COc1cc(/C=C/C(=O)CC(=O)/C=C/c2ccc(OCCOCCN)c(OC)c2)ccc1OCCOCCN [Curcumin 02 hydrochloride] | > 2 | > 6 | > 4 | > 7 | –
18 | COc1cc(/C=C/C(=O)CC(=O)/C=C/c2ccc(OCCNC(=N)N)c(OC)c2)ccc1OCCNC(=N)N [Curcumin 10b hydrochloride] | > 5 | > 7 | > 4 | > 6 | –

— patent US11191855B2, “1,7-diaryl-1,6-heptadiene-3,5-dione derivatives, methods for the production and use thereof” (UNIVERSITÄTSKLINIKUM REGENSBURG, priority 2015, dated 2021)
